Experimental data as given in patent publication US20050148514A1, “Method and composition for treatment of angiogenesis” (priority 2003, published 2005).
Where no end group is shown, it is not given here.

System: ERK
Assay: PDGF-induced ERK phosphorylation in PASMC
Type: cell-based
Conditions: treatment as for HUVEC
Experimental: Cell culture. Human umbilical vein endothelial cells (HUVEC) and pulmonary aortic smooth muscle cells (PASMC) were obtained from Clonetics and maintained in endothelial cell basal medium-2, (EBM-2; Clonetics) and smooth muscle medium-2 (SmGM-2; Clonetics), respectively. Cells were cultured at 37° C. under a humidified atmosphere containing 5% CO2. For experimental purposes, cells were plated in 8 100-mm plastic dishes at 5,000 cells/cm^2 and were grown to confluence before overnight serum starvation. Cells were treated with vehicle or with a PCK3145 derivative diluted in 0.1 N NaOH, and stimulated with 50 ng/ml VEGF, PDGF or with 1 μM S1P.
Immunoprecipitation and immunoblotting procedures. After treatment, cells were washed once with phosphate-buffered saline (PBS) containing 1 mM sodium orthovanadate and were incubated in the same medium for 1 h at 4° C. The cells were solubilized on ice in lysis buffer (150 mM NaCl, 10 mM Tris-HCl, pH 7.4, 1 mM EDTA, 1 mM EGTA, 0.5% Nonidet P-40, 1% Triton X-100) containing 1 mM sodium orthovanadate. The cells were then scraped from the culture dishes and the resulting lysates were clarified by centrifugation at 10,000 g for 10 min. Protein concentrations were determined using the micro bicinchoninic acid method. For immunoprecipitation studies, lysates were clarified by a 1 h incubation at 4° C. with a mixture of Protein A/Protein G Sepharose beads. […]

Sequence: EWQTDNCETCTCYET (cysteine pairing not given here)
- PDGF-induced ERK phosphorylation: inhibition
